# Measurements reported in patent US20260053716A1, “COMPOSITION FOR DENTIN ADHESION AND COMPOSITION FOR PULP RESTORATION, EACH COMPOSITION CONTAINING CPNE7-DERIVED PEPTIDE” (HYSENSBIO CO., LTD, priority 2022, published 2026).
# Ends that are not written are not given here.
# Test: Observation of dentinal tubule permeability by confocal microscopy
# Type: in vitro ADME
# Conditions: rhodamine-attached KH001 in ABU, applied about 30 seconds to coronal surface of extracted human tooth
# Source text: The composition for dentin adhesion prepared according to Example 2-1-1 of the present invention was applied to extracted human teeth to observe dentinal tubule permeability. The extracted human teeth were impacted human third molars from patients aged 18 to 22, provided by the Seoul National University Dental Hospital. The experimental protocol was approved by the Institutional Review Board (IRB; IRB Number: S-D20140007), and prior consent was obtained from all patients.
# The crown of the extracted human tooth was transversely cut using a diamond saw to expose the dentinal tubule, and then the exposed human tooth was treated. A composition for dentin adhesion prepared according to Example 2-1-1 containing the KH001 peptide (SEQ ID NO: 96), to which rhodamine was attached as a fluorescent dye, was applied to the coronal surface of the extracted human tooth.
# The composition for dentin adhesion was applied without a brushing process or an air-drying process and left for about 30 seconds for photopolymerization, and then confocal images were taken.
sequence,measurement,value
"KYKQKRRSYK [KH001, KYKQKRRSYK]",dentinal tubule permeability (whether KH001 reached the pulp),flowed well into the pulp cavity along the dentinal tubule
